{"source": "patent US20150202304A1", "about": "“ENCAPSULATION OF IMMISCIBLE PHASES IN SILK FIBROIN BIOMATERIALS” (TUFTS UNIVERSITY, priority 2012, published 2015)", "test": "Release of adenosine from dissolvable silk films in PBS", "type": "physicochemical", "conditions": "within 15 minutes of exposure to 37° C. PBS; ~0.5, 0.25 or 0.125 mg adenosine per 0.2 mm^2 film", "method": "Rapid dissolution of films loaded with a dye and release of the dye from the films occur when the films are immersed in ˜37° C. buffer (FIG. 10). Dissolvable silk films loaded with an active agent (e.g., ˜0.5, 0.25 or 0.125 mg of adenosine per 0.2 mm^2 film) released the majority of the drug load (approx. 80%) within 15 minutes of exposure to 37° C. phosphate buffered saline (PBS) (Data not shown)."}
{"smiles": "Nc1ncnc2c1ncn2[C@@H]1O[C@H](CO)[C@@H](O)[C@H]1O", "note": "[adenosine]", "values": [{"measurement": "drug load released from dissolvable silk films", "result": "approx. 80%"}]}
